Results taken from a compilation of properties of binary mixtures (doi:10.1016/j.molliq.2017.05.115).

Experiment: xn = mol fraction of the nth substance listed
Conditions: 101 kPa

CC[n+]1ccn(C)c1.COS(=O)(=O)[O-] + CCCCCCCO
speed of sound (298.15 K, x1 = 0.0836): 1330.6 m/s | speed of sound (298.15 K, x1 = 0.1703): 1341.3 m/s | speed of sound (298.15 K, x1 = 0.2602): 1357.7 m/s | speed of sound (298.15 K, x1 = 0.3537): 1380.4 m/s | speed of sound (298.15 K, x1 = 0.4508): 1410.5 m/s | speed of sound (298.15 K, x1 = 0.657): 1499.2 m/s | speed of sound (298.15 K, x1 = 0.8808): 1646.1 m/s | speed of sound (303.15 K, x1 = 0.0836): 1319.6 m/s | speed of sound (303.15 K, x1 = 0.1703): 1330.5 m/s | speed of sound (303.15 K, x1 = 0.2602): 1346.9 m/s | speed of sound (303.15 K, x1 = 0.3537): 1369.7 m/s | speed of sound (303.15 K, x1 = 0.4508): 1399.9 m/s | speed of sound (303.15 K, x1 = 0.5518): 1438.8 m/s | speed of sound (303.15 K, x1 = 0.657): 1488.8 m/s | speed of sound (303.15 K, x1 = 0.8808): 1636.2 m/s | speed of sound (308.15 K, x1 = 0.0836): 1299.7 m/s | speed of sound (308.15 K, x1 = 0.1703): 1310.5 m/s | speed of sound (308.15 K, x1 = 0.2602): 1327 m/s | speed of sound (308.15 K, x1 = 0.4508): 1380.2 m/s | speed of sound (308.15 K, x1 = 0.5518): 1419.4 m/s | speed of sound (308.15 K, x1 = 0.657): 1469.8 m/s | speed of sound (308.15 K, x1 = 0.7665): 1534.7 m/s | speed of sound (308.15 K, x1 = 0.8808): 1619.5 m/s
